Like-named read-outs stand apart in the source and are kept apart here.
Assays:
[1] = target: rat mGlu3 (Rattus norvegicus (Rat), UniProt P31422); test: mGlu3 Ca2+ flux assay; type: cell-based; details: for remaining activity at 30 µM: amplitude of response at 30 μM test compound as % of maximal response to glutamate, read-out: rat mGlu3 Glu max (%)
Procedure: (§1) The cells were grown overnight at 37° C. in the presence of 5% CO2. […] Dye was removed, 20 μL of assay buffer was added, and the plate was incubated for 10 minutes at room temperature. Ca^2+ flux was measured using the Functional Drug Screening System (FDSS7000, Hamamatsu, Japan). […] All test compounds were dissolved and diluted to a concentration of 10 mM in 100% DMSO. […] Calcium fluorescence measures were recorded as fold over basal fluorescence; raw data was then normalized to the maximal response to glutamate. […] The raw data file containing all time points was used as the data source in the analysis template. This was saved by the FDSS as a tab-delimited text file. Data were normalized using a static ratio function (F/F0) for each measurement of the total 360 values per well divided by each well's initial value. […] This is sufficient time to capture the peak amplitude of the cellular calcium response. […] EC50 values for test compounds were generated by fitting the normalized values versus the log of the test compound concentration (in mol/L) using a 4 parameter logistic equation where none of the parameters were fixed. Each of the three values collected at each concentration of test compound were weighted evenly.

[2] = target: rat mGlu5 (Rattus norvegicus (Rat), UniProt P31424); test: mGlu5 Ca2+ flux assay; type: cell-based; details: for Fold selectivity (mGlu3 vs. mGlu5): ratio of rat mGlu5 EC50 or IC50 to rat mGlu3 IC50; for EC50: read-out: rat mGlu5 EC50 or IC50; for Emax at 30 µM: PAM, amplitude of response at 30 μM test compound as % of maximal response to glutamate, read-out: rat mGlu5 Glu max (%)
rat mGlu5, sequence (P31424 21-1203): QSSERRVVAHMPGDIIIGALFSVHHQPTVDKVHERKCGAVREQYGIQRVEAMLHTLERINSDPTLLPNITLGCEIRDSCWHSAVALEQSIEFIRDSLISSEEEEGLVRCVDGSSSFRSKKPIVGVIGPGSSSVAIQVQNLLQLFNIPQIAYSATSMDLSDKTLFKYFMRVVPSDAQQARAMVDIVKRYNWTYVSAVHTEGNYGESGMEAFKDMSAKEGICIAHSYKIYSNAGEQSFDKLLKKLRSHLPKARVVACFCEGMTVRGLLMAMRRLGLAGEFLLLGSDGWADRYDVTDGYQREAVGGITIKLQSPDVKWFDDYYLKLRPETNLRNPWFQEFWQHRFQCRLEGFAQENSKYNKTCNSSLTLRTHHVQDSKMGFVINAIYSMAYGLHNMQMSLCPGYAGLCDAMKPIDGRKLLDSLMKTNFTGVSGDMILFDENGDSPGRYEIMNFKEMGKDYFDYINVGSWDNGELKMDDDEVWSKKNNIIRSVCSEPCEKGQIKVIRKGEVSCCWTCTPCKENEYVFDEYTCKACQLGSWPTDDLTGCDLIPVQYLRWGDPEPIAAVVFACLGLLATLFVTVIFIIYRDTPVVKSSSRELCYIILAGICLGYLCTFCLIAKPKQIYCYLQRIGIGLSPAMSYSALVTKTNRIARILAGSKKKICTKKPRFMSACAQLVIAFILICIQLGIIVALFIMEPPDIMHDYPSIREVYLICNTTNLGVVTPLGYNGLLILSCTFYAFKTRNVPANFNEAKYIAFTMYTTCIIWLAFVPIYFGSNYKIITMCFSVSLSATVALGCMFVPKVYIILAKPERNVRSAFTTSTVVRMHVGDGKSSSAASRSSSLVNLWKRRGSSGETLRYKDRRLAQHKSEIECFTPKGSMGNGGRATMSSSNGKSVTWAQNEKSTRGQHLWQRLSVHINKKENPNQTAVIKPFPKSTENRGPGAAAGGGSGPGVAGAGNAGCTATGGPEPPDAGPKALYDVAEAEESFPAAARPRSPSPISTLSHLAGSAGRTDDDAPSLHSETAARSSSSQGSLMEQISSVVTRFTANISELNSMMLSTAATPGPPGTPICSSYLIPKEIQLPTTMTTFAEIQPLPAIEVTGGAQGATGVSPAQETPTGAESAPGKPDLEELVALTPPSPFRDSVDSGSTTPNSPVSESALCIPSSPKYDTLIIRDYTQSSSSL
Procedure: as §1, with “for 5” for “for 10”

[3] = NAM potency, decrease of glutamate EC80 response, >30,000 = no measurable activity, >10,000 = no plateau, read-out: rat mGlu3 IC50

rat mGlu3, sequence (P31422 23-879): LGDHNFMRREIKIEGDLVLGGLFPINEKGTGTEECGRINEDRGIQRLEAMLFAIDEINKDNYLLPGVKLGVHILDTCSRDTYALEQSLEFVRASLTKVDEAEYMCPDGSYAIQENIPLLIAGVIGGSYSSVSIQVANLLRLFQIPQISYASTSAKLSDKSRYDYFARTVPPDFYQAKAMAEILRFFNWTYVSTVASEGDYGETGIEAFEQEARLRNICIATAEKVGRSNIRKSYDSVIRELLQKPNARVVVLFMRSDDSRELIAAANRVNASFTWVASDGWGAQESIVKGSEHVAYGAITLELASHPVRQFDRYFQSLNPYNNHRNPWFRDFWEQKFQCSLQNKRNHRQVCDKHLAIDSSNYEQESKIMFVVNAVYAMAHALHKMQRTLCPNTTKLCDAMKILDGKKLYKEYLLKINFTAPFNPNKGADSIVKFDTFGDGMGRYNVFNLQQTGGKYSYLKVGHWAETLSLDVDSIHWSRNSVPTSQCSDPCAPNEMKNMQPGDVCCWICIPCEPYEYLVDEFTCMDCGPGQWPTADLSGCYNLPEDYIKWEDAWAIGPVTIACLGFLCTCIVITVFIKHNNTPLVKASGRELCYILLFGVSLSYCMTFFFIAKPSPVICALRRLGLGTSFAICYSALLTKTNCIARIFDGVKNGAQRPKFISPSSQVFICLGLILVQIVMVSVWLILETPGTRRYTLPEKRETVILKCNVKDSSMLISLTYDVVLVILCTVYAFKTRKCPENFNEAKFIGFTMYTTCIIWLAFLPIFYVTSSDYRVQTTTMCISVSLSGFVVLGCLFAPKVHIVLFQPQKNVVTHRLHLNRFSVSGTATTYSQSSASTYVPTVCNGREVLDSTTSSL

In the case of `COc1ccc(NCc2cc3n(n2)CCN(c2ccc(F)c(F)c2)C3=O)cc1` [Compound 1, 5-(3,4-Difluorophenyl)-2-(((4-methoxyphenyl)amino)methyl)-6,7-dihydropyrazolo[1,5-a]pyrazin-4(5H)-one], the remaining activity at 30 µM [1] is reported as 4.04%, the “Fold selectivity (mGlu3 vs. mGlu5)” value [2] is reported as greater than 20 and the EC50 [2] is reported as greater than 30 µM.
With `O=C1c2cc(CNc3ccccc3)nn2CCN1c1ccc(F)cc1` [Compound 2, 5-(4-fluorophenyl)-2-((phenylamino)methyl)-6,7-dihydropyrazolo[1,5-a]pyrazin-4(5H)-one] the IC50 [1, 3] was 1320 nM, the remaining activity at 30 µM [1] was 1.99% and the Emax at 30 µM [2] was 98.3%. The “Fold selectivity (mGlu3 vs. mGlu5)” value [2] was 1.55 and the EC50 [2] was 2.04 µM.
`O=C1c2cc(CNc3ccccc3F)nn2CCN1c1ccc(F)cc1` [Compound 3, 5-(4-fluorophenyl)-2-(((2-fluorophenyl)amino)methyl)-6,7-dihydropyrazolo[1,5-a]pyrazin-4(5H)-one] was tested, and the IC50 [1, 3] was 944 nM, the remaining activity at 30 µM [1] was 1.73% and the Emax at 30 µM [2] was 95.7%. The “Fold selectivity (mGlu3 vs. mGlu5)” value [2] was 2.62 and the EC50 [2] was 2.47 µM.
With `Cc1ccccc1NCc1cc2n(n1)CCN(c1ccc(F)cc1)C2=O` [Compound 4, 5-(4-fluorophenyl)-2-((o-tolylamino)methyl)-6,7-dihydropyrazolo[1,5-a]pyrazin-4(5H)-one] the IC50 [1, 3] was 2390 nM, the remaining activity at 30 µM [1] was 2.62% and the Emax at 30 µM [2] was 42.2%. For the same molecule, the “Fold selectivity (mGlu3 vs. mGlu5)” value [2] was greater than 4.1 and the EC50 [2] was greater than 10 µM.
Molecule `O=C1c2cc(CNc3ccccc3Cl)nn2CCN1c1ccc(F)cc1` [Compound 5, 2-(((2-chlorophenyl)amino)methyl)-5-(4-fluorophenyl)-6,7-dihydropyrazolo[1,5-a]pyrazin-4(5H)-one] has an IC50 [1, 3] of 1270 nM, a remaining activity at 30 µM [1] of 2.08% and an Emax at 30 µM [2] of 65.4%. For the same molecule, the “Fold selectivity (mGlu3 vs. mGlu5)” value [2] was 1.72 and the EC50 [2] was 2.19 µM.
With `COc1ccccc1NCc1cc2n(n1)CCN(c1ccc(F)cc1)C2=O` [Compound 6, 5-(4-fluorophenyl)-2-(((2-methoxyphenyl)amino)methyl)-6,7-dihydropyrazolo[1,5-a]pyrazin-4(5H)-one] the IC50 [1, 3] was 3040 nM, the remaining activity at 30 µM [1] was 0.98% and the “Fold selectivity (mGlu3 vs. mGlu5)” value [2] was greater than 9.8. It also gave an EC50 [2] greater than 30 µM.
`O=C1c2cc(CNc3cccc(F)c3)nn2CCN1c1ccc(F)cc1` [Compound 7, 5-(4-fluorophenyl)-2-(((3-fluorophenyl)amino)methyl)-6,7-dihydropyrazolo[1,5-a]pyrazin-4(5H)-one] showed an IC50 [1, 3] of 1040 nM, a remaining activity at 30 µM [1] of 1.28% and an Emax at 30 µM [2] of 99%. The “Fold selectivity (mGlu3 vs. mGlu5)” value [2] was 2.13 and the EC50 [2] was 2.21 µM.
In the case of `Cc1cccc(NCc2cc3n(n2)CCN(c2ccc(F)cc2)C3=O)c1` [Compound 8, 5-(4-fluorophenyl)-2-((m-tolylamino)methyl)-6,7-dihydropyrazolo[1,5-a]pyrazin-4(5H)-one], the IC50 [1, 3] is reported as 1350 nM, the remaining activity at 30 µM [1] is reported as 2.85% and the Emax at 30 µM [2] is reported as 79.4%. For the same molecule, the “Fold selectivity (mGlu3 vs. mGlu5)” value [2] was 4.41 and the EC50 [2] was 5.96 µM.
`O=C1c2cc(CNc3cccc(Cl)c3)nn2CCN1c1ccc(F)cc1` [Compound 9, 2-(((3-chlorophenyl)amino)methyl)-5-(4-fluorophenyl)-6,7-dihydropyrazolo[1,5-a]pyrazin-4(5H)-one] was tested, and the IC50 [1, 3] was 1210 nM, the remaining activity at 30 µM [1] was 2.95% and the Emax at 30 µM [2] was 82.8%. For the same molecule, the “Fold selectivity (mGlu3 vs. mGlu5)” value [2] was 2.74 and the EC50 [2] was 3.32 µM.
In the case of `COc1cccc(NCc2cc3n(n2)CCN(c2ccc(F)cc2)C3=O)c1` [Compound 10, 5-(4-fluorophenyl)-2-(((3-methoxyphenyl)amino)methyl)-6,7-dihydropyrazolo[1,5-a]pyrazin-4(5H)-one], the IC50 [1, 3] is reported as 1780 nM, the remaining activity at 30 µM [1] is reported as 2.01% and the “Fold selectivity (mGlu3 vs. mGlu5)” value [2] is reported as greater than 16. It also gave an EC50 [2] greater than 30 µM.
For `N#Cc1cccc(NCc2cc3n(n2)CCN(c2ccc(F)cc2)C3=O)c1` [Compound 11, 3-(((5-(4-fluorophenyl)-4-oxo-4,5,6,7-tetrahydropyrazolo[1,5-a]pyrazin-2-yl)methyl)amino)benzonitrile], the IC50 [1, 3] was 1250 nM, the remaining activity at 30 µM [1] was 1.48% and the “Fold selectivity (mGlu3 vs. mGlu5)” value [2] was greater than 24. The EC50 [2] was greater than 30 µM.
`O=C1c2cc(CNc3cccc(OC(F)F)c3)nn2CCN1c1ccc(F)cc1` [Compound 12, 2-(((3-(difluoromethoxy)phenyl)amino)methyl)-5-(4-fluorophenyl)-6,7-dihydropyrazolo[1,5-a]pyrazin-4(5H)-one] showed an IC50 [1, 3] of 505 nM, a remaining activity at 30 µM [1] of 1.31% and an Emax at 30 µM [2] of 85.6%. The “Fold selectivity (mGlu3 vs. mGlu5)” value [2] was 14.51 and the EC50 [2] was 7.33 µM.
Work on `O=C1c2cc(CNc3ccc(F)cc3)nn2CCN1c1ccc(F)cc1` [Compound 13, 5-(4-fluorophenyl)-2-(((4-fluorophenyl)amino)methyl)-6,7-dihydropyrazolo[1,5-a]pyrazin-4(5H)-one] yielded an IC50 [1, 3] of 1150 nM, a remaining activity at 30 µM [1] of 2.22% and an Emax at 30 µM [2] of 56.6%. The “Fold selectivity (mGlu3 vs. mGlu5)” value [2] was 2.83 and the EC50 [2] was 3.26 µM.
With `Cc1ccc(NCc2cc3n(n2)CCN(c2ccc(F)cc2)C3=O)cc1` [Compound 14, 5-(4-fluorophenyl)-2-((p-tolylamino)methyl)-6,7-dihydropyrazolo[1,5-a]pyrazin-4(5H)-one] the IC50 [1, 3] was 1540 nM, the remaining activity at 30 µM [1] was -11.8% and the “Fold selectivity (mGlu3 vs. mGlu5)” value [2] was greater than 19. It also gave an EC50 [2] greater than 30 µM.
With `O=C1c2cc(CNc3ccc(Br)cc3)nn2CCN1c1ccc(F)cc1` [Compound 16, 2-(((4-bromophenyl)amino)methyl)-5-(4-fluorophenyl)-6,7-dihydropyrazolo[1,5-a]pyrazin-4(5H)-one] the IC50 ([1]; read-out: rat mGlu3 IC50) was greater than 30000 nM.
For `COc1ccc(NCc2cc3n(n2)CCN(c2ccc(F)cc2)C3=O)cc1` [Compound 17, 5-(4-fluorophenyl)-2-(((4-methoxyphenyl)amino)methyl)-6,7-dihydropyrazolo[1,5-a]pyrazin-4(5H)-one], the IC50 [1, 3] was 2120 nM, the remaining activity at 30 µM [1] was 1.55% and the “Fold selectivity (mGlu3 vs. mGlu5)” value [2] was greater than 14. It also gave an EC50 [2] greater than 30 µM.
`N#Cc1ccc(NCc2cc3n(n2)CCN(c2ccc(F)cc2)C3=O)cc1` [Compound 18, 4-(((5-(4-fluorophenyl)-4-oxo-4,5,6,7-tetrahydropyrazolo[1,5-a]pyrazin-2-yl)methyl)amino)benzonitrile] was tested, and the IC50 [1, 3] was 4780 nM, the remaining activity at 30 µM [1] was 1.71% and the “Fold selectivity (mGlu3 vs. mGlu5)” value [2] was greater than 6.2. The EC50 [2] was greater than 30 µM.
With `O=C1c2cc(CNc3ccc(C(F)(F)F)cc3)nn2CCN1c1ccc(F)cc1` [Compound 19, 5-(4-fluorophenyl)-2-(((4-(trifluoromethyl)phenyl)amino)methyl)-6,7-dihydropyrazolo[1,5-a]pyrazin-4(5H)-one] the IC50 ([1]; read-out: rat mGlu3 IC50) was greater than 30000 nM and the EC50 [2] was greater than 30 µM.
In the case of `O=C1c2cc(CNc3ccc(OC(F)F)cc3)nn2CCN1c1ccc(F)cc1` [Compound 20, 2-(((4-(difluoromethoxy)phenyl)amino)methyl)-5-(4-fluorophenyl)-6,7-dihydropyrazolo[1,5-a]pyrazin-4(5H)-one], the IC50 [1, 3] is reported as 709 nM, the remaining activity at 30 µM [1] is reported as 2.9% and the “Fold selectivity (mGlu3 vs. mGlu5)” value [2] is reported as greater than 42. For the same molecule, the EC50 [2] was greater than 30 µM.
`O=C1c2cc(CNc3ccc(OC(F)(F)F)cc3)nn2CCN1c1ccc(F)cc1` [Compound 21, 5-(4-fluorophenyl)-2-(((4-(trifluoromethoxy)phenyl)amino)methyl)-6,7-dihydropyrazolo[1,5-a]pyrazin-4(5H)-one] was tested, and the remaining activity at 30 µM [1] was 13.3%, the IC50 ([1]; read-out: rat mGlu3 IC50) was greater than 10000 nM and the “Fold selectivity (mGlu3 vs. mGlu5)” value [2] was greater than 3. It also gave an EC50 [2] greater than 30 µM.
In the case of `CCc1ccc(NCc2cc3n(n2)CCN(c2ccc(F)cc2)C3=O)cc1` [Compound 22, 2-(((4-ethylphenyl)amino)methyl)-5-(4-fluorophenyl)-6,7-dihydropyrazolo[1,5-a]pyrazin-4(5H)-one], the IC50 [1, 3] is reported as 1550 nM, the remaining activity at 30 µM [1] is reported as -11% and the “Fold selectivity (mGlu3 vs. mGlu5)” value [2] is reported as greater than 19. It also gave an EC50 [2] greater than 30 µM.
Molecule `CC(C)(C)c1ccc(NCc2cc3n(n2)CCN(c2ccc(F)cc2)C3=O)cc1` [Compound 24, 2-(((4-(tert-butyl)phenyl)amino)methyl)-5-(4-fluorophenyl)-6,7-dihydropyrazolo[1,5-a]pyrazin-4(5H)-one] has an IC50 ([1]; read-out: rat mGlu3 IC50) greater than 30000 nM.
With `O=C1c2cc(CNc3ccc(F)cc3)nn2CCN1c1ccc(F)cc1` [drawing 32 X = NH] the IC50 ([1]; Table 2 compounds with X = NH, read-out: mGlu3 IC50) was 1150 nM and the “mGlu3 Glu max” value ([1]; Table 2 compounds with X = NH, response at 30 μM compound as percentage of maximal glutamate response) was 2%.
